These results are taken from paper PMC7868322, “Rational Design of A Novel Small-Molecule HIV-1 Inactivator Targeting Both gp120 and gp41 of HIV-1” (Frontiers in Pharmacology, 2021).

One data set deals with HIV-1 IIIB (X4). In words: Inhibition of HIV-1 infection (p24 ELISA). In kind it is cell-based.
The subject of another data set is HIV-1 Bal (R5). In words: Inhibition of HIV-1 infection (p24 ELISA). In kind it is cell-based.
The subject of another data set is HIV-1 IIIB. In words: Inactivation of cell-free HIV-1 virions (PEG-6000 precipitation, p24 ELISA). It counts as cell-based. To be noted: Human immunodeficiency virus 1, IIIB virus inactivation. (In general: In an ELISA, binding on a coated surface is turned into a signal by an enzyme label.)
Another data set relates to HIV-1 Bal. Described as above. It counts as cell-based.
A further data set addresses T1, HIV-1 HXB2 gp120 (Human immunodeficiency virus type 1 group M subtype B, UniProt P04578).
T1 construct: CHO-WT cells expressing HIV-1 HXB2 gp120; host or cells: CHO-WT cells
In words: Flow cytometry competition with gp120 CD4bs-targeting mAbs on CHO-WT cells. It counts as binding. To be noted: 100 µM. On the procedure: Flow cytometry was used to detect compounds that competed with gp120 CD4bs-targeting mAbs for binding to gp120. In brief, 100 µL of FD016 at a concentration of 100 µM or PBS was first incubated with CHO-WT cells expressing HIV-1 HXB2 gp120 for 30 min at room temperature, and then gp120 CD4bs-targeting mAbs (5 μg/mL, 100 µL) and FITC-labeled goat anti-human secondary antibody were added successively. After three washes, the cells were analyzed with flow cytometry. ELISA was carried out to detect the activity of compounds that inhibit the binding of soluble CD4 (sCD4) or gp120 CD4bs-targeting mAbs to gp120 as previously described ([Si et al., 2004]; [Curreli et al., 2014]). Briefly, for sCD4 and gp120 binding, 50 µL of HIV-1 IIIB gp120 at 0.5 μg/mL was captured on polystyrene plate coated with sheep anti-gp120 antibody D7324 (Aalto Bio Reagents). sCD4 (ImmunoDiagnostics, Inc.) at 200 ng/mL was then added in the presence of an equal volume of different concentrations of compounds or PBS and incubated at 37°C for 1 h. […] After adding 3,3′,5,5′-tetramethylbenzidine chromogen substrate and sulfuric acid, the absorbance at 450 nm (A450) was recorded using a Microplate Reader (Tecan, Männedorf, Switzerland).
A general note: Flow cytometry measures light scatter and fluorescence of single cells or particles in a stream.

A short description of the next data set: Cytotoxicity (CCK-8). It counts as cell-based. To be noted: human. On the procedure: Cell viability was detected following the instructions in the protocol provided in the cell counting kit-8 (CCK-8; Dojindo Molecular Technologies, Gaithersburg, MD, USA) as previously described ([Yang et al., 2018]). Briefly, MT-2 cells and CEMx174 517 5.25 M7 cells (3 × 10^4/well) were incubated with compounds at different concentrations at 37°C for 48 h. Then, the supernatant was discarded, and CCK8 diluted 10 times with fresh medium was added (200 μL/well). After 2–6 h of incubation at 37°C, the absorbance at 450 nm was measured using a microplate reader (Tecan, Männedorf, Switzerland).

The target in data set [1] is T2, 6HB formation between N36 and C34-biotin (Human immunodeficiency virus type 1 group M subtype B, UniProt P04578).
T2 construct: preincubated with N36 peptide (2 μM, 50 μL) at 37°C for 1 h; purchased NIH AIDS Reagent Program
In words: ELISA inhibition of six-helix bundle formation. In kind it is biochemical, HIV-1. To be noted: IC50, inhibition of 6HB formation between N36 and C34-biotin, peptides 0.5 μM final.
Method: An inhibitor (compound or C-peptide control) at graded concentrations was preincubated with N36 peptide (2 μM, 50 μL) at 37°C for 1 h. […] Subsequently, 50 μL of the mixture were added to the wells of the NC-1-coated plate, followed by incubation for 1 h. Then, HRP-labeled streptavidin and the substrate were added sequentially. The optical density at 450 nm was measured using a microplate reader (Tecan, Männedorf, Switzerland).

Another data set relates to 92/TH/009 (A/E, R5). In words: Inactivation of cell-free HIV-1 clinical virus. In kind it is cell-based. Particulars: inactivation of cell-free virions, means ± SD.
The next data set concerns KNH1135 (A, R5). In words: microbe, parasite or virus in culture. In kind it is cell-based, HIV-1. Particulars: inactivation of cell-free virions, clinical virus KNH1135 (A, R5); means ± SD.
In another data set the test system is SM145/GS 016 (C, R5). In words: Inactivation of cell-free HIV-1 clinical virus. It counts as cell-based. Particulars: inactivation of cell-free virions, means ± SD.
For a further data set, the system named is PBL288 (C, R5). In words: Inactivation of cell-free HIV-1 clinical virus. It counts as cell-based. To be noted: inactivation of cell-free virions, means ± SD.
The mark [2] stands for this setting: Human immunodeficiency virus 1, MT2, laboratory-adapted strain IIIB, MT-2 cells, p24 ELISA, read-out: IC50, inhibition of HIV-1 IIIB infection.
Where [3] appears, read: Human immunodeficiency virus 1, laboratory-adapted strain Bal, CEMx174 5.25 M7 cells, p24 ELISA, read-out: IC50, inhibition of HIV-1 Bal infection.
The mark [4] stands for this setting: CEMx174 5.25 M7 cells, read-out: CC50, CEMx174 5.25 M7 cell.
The mark [5] stands for this setting: MT-2 cells, read-out: CC50, MT-2 cell.

Like-named read-outs stand apart in the source and are kept apart here.

One may read the IC50 as the concentration that gives 50% inhibition. Usually EC50 stands for the midpoint of the concentration-response curve. Usually CC50 stands for the concentration giving 50% cytotoxicity. As to `CC1(C)CC(NC(=O)C(=O)Nc2ccc(Cl)c(F)c2)CC(C)(C)N1` [FD016, N^1-(4-Chloro-3-Fluorophenyl)-N^2-(2,2,6,6-Tetramethylpiperidin-4-yl) Oxalamide], the IC50 with HIV-1 IIIB (X4) (setting [2]) was determined as 5.93 µM; with HIV-1 IIIB (X4) (Human immunodeficiency virus 1, IIIB, combination experiment, alone, read-out: IC50 of FD016, Alone), 4.4 µM; with HIV-1 IIIB (X4) (Human immunodeficiency virus 1, IIIB, in mixture with FD017, read-out: IC50 of FD016, In mixture), 1.19 µM; in the data set on HIV-1 Bal (R5) (Human immunodeficiency virus 1, Bal, combination experiment, alone, read-out: IC50 of FD016, Alone), 18.8 µM; in the data set with HIV-1 Bal (R5) (Human immunodeficiency virus 1, Bal, in mixture with FD017, read-out: IC50 of FD016, In mixture), 1.82 µM; in the data set on HIV-1 Bal (R5) (setting [3]), 17 µM. Further, the EC50 is above 10 µM in the data set with HIV-1 IIIB (alone, read-out: EC50 of FD016, Alone); 2.51 µM with HIV-1 IIIB (in mixture with FD017, read-out: EC50 of FD016, In mixture); above 20 µM in the data set on HIV-1 Bal (Human immunodeficiency virus 1, Bal virus inactivation, alone, read-out: EC50 of FD016, Alone); 2.63 µM with HIV-1 Bal (Human immunodeficiency virus 1, Bal virus inactivation, in mixture with FD017, read-out: EC50 of FD016, In mixture). In addition, the “Inhibition of gp120 CD4bs mAbs (B12 and N6) binding to gp120-expressing CHO cells” value on HIV-1 HXB2 gp120 is “could inhibit the interaction of gp120 and CD4bs-targeting mAbs effectively”. For the same compound, the CC50 at 48 h in the data set “Cytotoxicity (CCK-8)” (setting [4]) and in the data set “Cytotoxicity (CCK-8)” (setting [5]) was above 50 µM each time.
Consider `O=C(O)c1cc(-c2ccc(/C=C3\SC(=S)N(CCc4ccc(O)cc4)C3=O)o2)ccc1Cl` [FD017, (Z)-2-Chloro-5-(5-((3-(4-Hydroxyphenethyl)-4-oxo-2-Thioxothiazolidin-5-ylidene)methyl)furan-2-yl)benzoic Acid], for which the IC50 came out at 1.44 µM with HIV-1 IIIB (X4) (setting [2]); 1.8 µM with HIV-1 IIIB (X4) (Human immunodeficiency virus 1, IIIB, combination experiment, alone, read-out: IC50 of FD017, Alone); 0.59 µM in the data set with HIV-1 IIIB (X4) (Human immunodeficiency virus 1, IIIB, in mixture with FD016, read-out: IC50 of FD017, In mixture); 1.48 µM with HIV-1 Bal (R5) (Human immunodeficiency virus 1, Bal, combination experiment, alone, read-out: IC50 of FD017, Alone); 0.91 µM in the data set on HIV-1 Bal (R5) (Human immunodeficiency virus 1, Bal, in mixture with FD016, read-out: IC50 of FD017, In mixture); 0.83 µM in the data set with HIV-1 Bal (R5) (setting [3]). This compound came in with an IC50 in [1] of 1.36 µM. Moreover, the EC50 in the data set on HIV-1 IIIB (alone, read-out: EC50 of FD017, Alone) is above 10 µM; with HIV-1 IIIB (in mixture with FD016, read-out: EC50 of FD017, In mixture), 1.21 µM; in the data set with HIV-1 Bal (Human immunodeficiency virus 1, Bal virus inactivation, alone, read-out: EC50 of FD017, Alone) it was above 5 µM; with HIV-1 Bal (Human immunodeficiency virus 1, Bal virus inactivation, in mixture with FD016, read-out: EC50 of FD017, In mixture), 1.38 µM. Further, the CC50 at 48 h in the data set “Cytotoxicity (CCK-8)” (setting [4]) was found to be 39.8 µM; in the data set “Cytotoxicity (CCK-8)” (setting [5]) it was 47.9 µM.
Turning to Maraviroc [reference compound], the half-maximal inhibitory concentration (IC50) in the data set with HIV-1 Bal (R5) (laboratory-adapted strain Bal, CEMx174 5.25 M7 cells, p24 ELISA, read-out: IC50, inhibition of HIV-1 Bal infection) is 0.001 µM. In addition, the EC50 is above 0.5 µM in the data set on HIV-1 Bal (cell-free virions, 1 h at 4°C, PEG-6000 precipitation, read-out: EC50, inactivation of HIV-1 Bal); above 0.5 µM with 92/TH/009 (A/E, R5); above 0.5 µM in the data set on KNH1135 (A, R5); above 0.5 µM in the data set with SM145/GS 016 (C, R5); above 0.5 µM with PBL288 (C, R5).
